Results from patent US20220033397A1, “PHARMACEUTICAL COMPOUNDS AND THEIR USE AS INHIBITORS OF UBIQUITIN SPECIFIC PROTEASE 19 (USP19)” (ALMAC DISCOVERY LIMITED, priority 2018, published 2022).

Each compound was assayed against T1, Full-length USP19 (Homo sapiens, UniProt O94966) (assay: USP19 fluorescence polarisation (FP) homogeneous assay with Ubiquitin-Lys-TAMRA substrate). Conditions: 2.5 nM USP19, 30 min pre-incubation, average of at least two duplicate experiments.
T1 construct: Full-length USP19 was purchased from Boston Biochem (E-576); purchased Boston Biochem E-576
T1 sequence (O94966 1-1318): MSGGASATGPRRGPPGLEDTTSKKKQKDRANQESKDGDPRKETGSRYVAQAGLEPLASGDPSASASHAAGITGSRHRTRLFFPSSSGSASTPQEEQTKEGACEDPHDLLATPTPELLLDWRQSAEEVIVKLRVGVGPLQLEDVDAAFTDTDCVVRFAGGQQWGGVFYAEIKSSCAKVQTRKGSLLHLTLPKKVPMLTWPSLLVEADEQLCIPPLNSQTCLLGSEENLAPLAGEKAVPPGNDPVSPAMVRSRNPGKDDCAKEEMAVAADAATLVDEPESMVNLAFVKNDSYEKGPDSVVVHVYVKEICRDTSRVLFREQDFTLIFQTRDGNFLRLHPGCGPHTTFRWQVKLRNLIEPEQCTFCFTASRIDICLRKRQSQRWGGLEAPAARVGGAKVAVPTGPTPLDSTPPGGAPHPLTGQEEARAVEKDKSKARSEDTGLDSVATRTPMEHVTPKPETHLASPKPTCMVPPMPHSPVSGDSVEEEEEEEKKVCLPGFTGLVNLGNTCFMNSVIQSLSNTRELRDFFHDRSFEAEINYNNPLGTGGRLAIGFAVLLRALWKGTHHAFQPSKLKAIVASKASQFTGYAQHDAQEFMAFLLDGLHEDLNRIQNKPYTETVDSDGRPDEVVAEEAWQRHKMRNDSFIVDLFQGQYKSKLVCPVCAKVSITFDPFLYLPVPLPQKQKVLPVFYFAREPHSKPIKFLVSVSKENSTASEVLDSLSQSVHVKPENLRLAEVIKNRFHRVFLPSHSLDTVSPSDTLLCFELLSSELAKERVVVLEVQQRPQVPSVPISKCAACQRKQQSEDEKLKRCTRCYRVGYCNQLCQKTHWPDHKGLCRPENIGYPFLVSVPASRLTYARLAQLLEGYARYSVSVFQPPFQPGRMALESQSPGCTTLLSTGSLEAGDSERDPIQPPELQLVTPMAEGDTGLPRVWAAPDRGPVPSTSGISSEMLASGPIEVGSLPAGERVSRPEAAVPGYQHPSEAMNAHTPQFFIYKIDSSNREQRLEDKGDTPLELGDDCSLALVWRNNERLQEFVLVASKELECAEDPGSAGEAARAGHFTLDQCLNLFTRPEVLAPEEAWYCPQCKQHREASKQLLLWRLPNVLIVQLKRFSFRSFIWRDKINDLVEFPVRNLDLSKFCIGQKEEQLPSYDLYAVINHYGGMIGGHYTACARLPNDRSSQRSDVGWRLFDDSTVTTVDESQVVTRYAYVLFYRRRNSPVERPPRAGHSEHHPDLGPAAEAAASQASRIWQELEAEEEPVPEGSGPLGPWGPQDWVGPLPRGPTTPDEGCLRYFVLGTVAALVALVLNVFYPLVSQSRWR
Type: biochemical
Procedure, shortened: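 Full-length USP19 preincubated 30 min at RT with inhibitor (200 μM to 2 μM series, 8–18 points) before adding 500 nM Ubiquitin-Lys-TAMRA substrate.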

| Compound | IC50 |
| --- | --- |
| Cc1cccc2c(=O)n(CC3(O)CCN(C(=O)[C@H](C)CC4CCCCC4)CC34CCCC4)cnc12 (stereo partly drawn) [Example 125, 3-((7-((R)-3-Cyclohexyl-2-methylpropanoyl)-10-hydroxy-7-azaspiro[4.5]decan-10-yl)methyl)-8-methylquinazolin-4(3H)-one] | 0.5 to 5 µM |
| O=C(N1CCC(O)(Cn2cnc(-c3ccccc3)cc2=O)C2(CCCC2)C1)N1CCCC1C1CC1 (stereo not shown) [Example 264, 3-((7-(2-Cyclopropylpyrrolidine-1-carbonyl)-10-hydroxy-7-azaspiro[4.5]decan-10-yl)methyl)-6-phenylpyrimidin-4(3H)-one] | 0.5 to 5 µM |
| C[C@H](CC(F)(F)F)C(=O)N1CCC(O)(Cn2cnc3cc(F)ccc3c2=O)C2(CCCC2)C1 (stereo partly drawn) [Example 156, 7-Fluoro-3-((10-hydroxy-7-((R)-4,4,4-trifluoro-2-methylbutanoyl)-7-azaspiro[4.5]decan-10-yl)methyl)quinazolin-4(3H)-one] | 5 to 50 µM |
| CN(C)C(=O)c1cn(CC2(O)CCN(C(=O)Oc3ccc([N+](=O)[O-])cc3)CC23CCCC3)c(=O)cc1-c1ccccc1 (stereo not shown) [Example 83, 4-Nitrophenyl 10-((5-(dimethylcarbamoyl)-2-oxo-4-phenylpyridin-1(2H)-yl)methyl)-10-hydroxy-7-azaspiro[4.5]decane-7-carboxylate] | 50 to 250 µM |
| CC(=O)N1CCN(CC2(O)CCN(C(=O)[C@H](C)CC3CCCCC3)CC23CCCC3)C(=O)C1 (stereo partly drawn) [Example 48, 4-Acetyl-1-((7-((R)-3-cyclohexyl-2-methylpropanoyl)-10-hydroxy-7-azaspiro[4.5]decan-10-yl)methyl)piperazin-2-one] | < 0.5 µM |
| C[C@H](CC1CCCCC1)C(=O)N1CCC(O)(Cn2cc(C3CC3)ncc2=O)C(C)(C)C1 (stereo partly drawn) [Example 22, 1-((1-((R)-3-Cyclohexyl-2-methylpropanoyl)-4-hydroxy-3,3-dimethylpiperidin-4-yl)methyl)-5-cyclopropylpyrazin-2(1H)-one] | 0.5 to 5 µM |
| O=C(N1CC[C@@](O)(Cn2cnc(-c3ccccc3C(F)(F)F)cc2=O)C2(CCCC2)C1)N1CCNC[C@H]1c1ccccc1 [Example 360, 3-(((S)-10-Hydroxy-7-((R)-2-phenylpiperazine-1-carbonyl)-7-azaspiro[4.5]decan-10-yl)methyl)-6-(2-(trifluoromethyl)phe-nyl)pyrimidin-4(3H)-one] | < 0.5 µM |
| C[C@H](CC1CCCCC1)C(=O)N1CCC(O)(CN2Cc3ncccc3C2=O)C2(CCCC2)C1 (stereo partly drawn) [Example 103, 6-((7-((R)-3-Cyclohexyl-2-methylpropanoyl)-10-hydroxy-7-azaspiro[4.5]decan-10-yl)methyl)-6,7-dihydro-5H-pyrrolo[3,4-b]pyridin-5-one] | 0.5 to 5 µM |
| C[C@H](CC1CCCCC1)C(=O)N1CCC(O)(Cn2ccncc2=O)C(C)(C)C1 (stereo partly drawn) [Example 1, 1-((1-((R)-3-Cyclohexyl-2-methylpropanoyl)-4-hydroxy-3,3-dimethylpiperidin-4-yl)methyl)pyrazin-2(1H)-one] | 0.5 to 5 µM |
| CCn1ncc2c(=O)n(CC3(O)CCN(C(=O)[C@H](C)CC4CCCCC4)CC34CCCC4)cnc21 (stereo partly drawn) [Example 124, 5-((7-((R)-3-Cyclohexyl-2-methylpropanoyl)-10-hydroxy-7-azaspiro[4.5]decan-10-yl)methyl)-1-ethyl-1,5-dihydro-4H-pyrazolo[3,4-d]pyrimidin-4-one] | < 0.5 µM |
| O=C(NCc1ccccc1)N1CCC(O)(Cn2cnc(-c3ccccc3)cc2=O)C2(CCCC2)C1 (stereo not shown) [Example 193, N-Benzyl-10-hydroxy-10-((6-oxo-4-phenylpyrimidin-1(6H)-yl)methyl)-7-azaspiro[4.5]decane-7-carboxamide] | < 0.5 µM |
| CC1(C)CN(C(=O)N2CCNC[C@H]2c2ccccc2)CC[C@@]1(O)Cn1cnc(-c2ccccc2)cc1=O [Example 322, 3-(((S)-4-Hydroxy-3,3-dimethyl-1-((R)-2-phenylpiperazine-1-carbonyl)piperidin-4-yl)methyl)-6-phenylpyrimidin-4(3H)-one] | < 0.5 µM |
| COc1ccc(F)cc1-c1cc(=O)n(C[C@]2(O)CCN(C(=O)N3CCNC[C@H]3c3ccccc3)CC23CCCC3)cn1 [Example 384, 6-(5-Fluoro-2-methoxyphenyl)-3-(((S)-10-hydroxy-7-((R)-2-phenylpipera-zine-1-carbonyl)-7-azaspiro[4.5]decan-10-yl)methyl)pyrimi-din-4(3H)-one] | < 0.5 µM |
| C[C@H](CC1CCCCC1)C(=O)N1CCC(O)(Cn2cnc3ccccc3c2=O)C2(CCCC2)C1 (stereo partly drawn) [Example 128, 3-((7-((R)-3-Cyclohexyl-2-methylpropanoyl)-10-hydroxy-7-azaspiro[4.5]decan-10-yl)methyl)quinazolin-4(3H)-one] | 0.5 to 5 µM |
| COc1ncc2c(=O)n(CC3(O)CCN(C(=O)[C@H](C)CC(F)(F)F)CC34CCCC4)ccc2n1 (stereo partly drawn) [Example 59, 6-((10-Hydroxy-7-((R)-4,4,4-trifluoro-2-methylbutanoyl)-7-azaspiro[4.5]decan-10-yl)methyl)-2-methoxypyrido[4,3-d]pyrimidin-5(6H)-one] | 5 to 50 µM |
| C[C@H](CC1CCCCC1)C(=O)N1CCC(O)(Cn2cc(-c3ccccn3)ncc2=O)C(C)(C)C1 (stereo partly drawn) [Example 23, 1-((1-((R)-3-Cyclohexyl-2-methylpropanoyl)-4-hydroxy-3,3-dimethylpiperidin-4-yl)methyl)-5-(pyridin-2-yl)pyrazin-2(1H)-one] | 5 to 50 µM |
| C[C@H](CC(F)(F)F)C(=O)N1CCC(O)(Cn2cnc3c(cnn3Cc3ccccc3)c2=O)C2(CCCC2)C1 (stereo partly drawn) [Example 168, 1-Benzyl-5-((10-hydroxy-7-((R)-4,4,4-trifluoro-2-methylbutanoyl)-7-azaspiro[4.5]decan-10-yl)methyl)-1,5-dihydro-4H-pyrazolo[3,4-d]pyrimidin-4-one] | 5 to 50 µM |
| O=C(N1CC[C@@](O)(Cn2cnc(-c3ccc(OC4CC4)cc3)cc2=O)C2(CCCC2)C1)N1CCNC[C@H]1c1ccccc1 [Example 350, 6-(4-Cyclo-propoxyphenyl)-3-(((S)-10-hydroxy-7-((R)-2-phenylpipera-zine-1-carbonyl)-7-azaspiro[4.5]decan-10-yl)methyl)pyrimi-din-4(3H)-one] | < 0.5 µM |
| CN(C)C(=O)c1cn(CC2(O)CCN(C(=O)N3CCC(C(F)(F)F)C3)CC23CCCC3)c(=O)cc1-c1ccccc1 (stereo not shown) [Example 88, 1-((10-Hydroxy-7-(3-(trifluoromethyl)pyrrolidine-1-carbonyl)-7-azaspiro[4.5]decan-10-yl)methyl)-N,N-dimethyl-6-oxo-4-phenyl-1,6-dihydropyridine-3-carboxamide] | < 0.5 µM |
| COc1ccc2ccn(CC3(O)CCN(C(=O)[C@H](C)CC(F)(F)F)CC34CCCC4)c(=O)c2c1 (stereo partly drawn) [Example 122, 2-((10-Hydroxy-7-((R)-4,4,4-trifluoro-2-methylbutanoyl)-7-azaspiro[4.5]decan-10-yl)methyl)-7-methoxyisoquinolin-1(2H)-one] | 50 to 250 µM |
| O=C(N1CCOC(F)(F)C1)N1CCC(O)(Cn2cnc(-c3ccccc3)cc2=O)C2(CCCC2)C1 (stereo not shown) [Example 253, 3-((7-(2,2-Difluoromorpholine-4-carbonyl)-10-hydroxy-7-azaspiro[4.5]decan-10-yl)methyl)-6-phenylpyrimidin-4(3H)-one] | 5 to 50 µM |
| O=C(N1CCC(O)(Cn2cnc(-c3ccccc3)cc2=O)C2(CCCC2)C1)N1CCC[C@H]1c1ccon1 (stereo partly drawn) [Example 265, 3-((10-Hydroxy-7-((S)-2-(isoxazol-3-yl)pyrrolidine-1-carbonyl)-7-azaspiro[4.5]decan-10-yl)methyl)-6-phenylpyrimidin-4(3H)-one] | 0.5 to 5 µM |
